Results published in article PMC3501516, “Anti-Diabetic Efficacy and Impact on Amino Acid Metabolism of GRA1, a Novel Small-Molecule Glucagon Receptor Antagonist” (PLoS ONE, 2012).

Columns and labels:
mouse GCGR = target: T1, mouse GCGR (Mus musculus, UniProt Q61606); test: Inhibition of glucagon-stimulated cAMP production in CHO cells expressing mouse GCGR; type: cell-based
T1 construct: expressed in transfected cells
Method: (§1) Transfected Chinese hamster ovary (CHO) cell lines were acquired and maintained as previously described [17], [20]. These included separate cell lines stably expressing human GCGR (hGCGR), mouse GCGR, rhesus GGCR, glucose-dependent insulinotropic peptide receptor (GIPR), GLP-1 receptor (GLP-1R), pituitary adenylate cyclase-activating polypeptide receptor type 1 (PAC1R), and vasoactive adenylate cyclase-activating polypeptide receptor type 2 (VPAC2R). […] Functional antagonism was assayed by measuring the production of cAMP in intact CHO cells stimulated by agonists specific for their cognate receptors (i.e., glucagon for GCGR-expressing cell lines, GIP for the GIPR-expressing line, etc.).

[1] = target: T2, GIPR (glucose-dependent insulinotropic peptide receptor) (Homo sapiens, UniProt P48546); test: Inhibition of GIP-stimulated cAMP production in CHO cells expressing GIPR; type: cell-based
T2 sequence (P48546 22-466): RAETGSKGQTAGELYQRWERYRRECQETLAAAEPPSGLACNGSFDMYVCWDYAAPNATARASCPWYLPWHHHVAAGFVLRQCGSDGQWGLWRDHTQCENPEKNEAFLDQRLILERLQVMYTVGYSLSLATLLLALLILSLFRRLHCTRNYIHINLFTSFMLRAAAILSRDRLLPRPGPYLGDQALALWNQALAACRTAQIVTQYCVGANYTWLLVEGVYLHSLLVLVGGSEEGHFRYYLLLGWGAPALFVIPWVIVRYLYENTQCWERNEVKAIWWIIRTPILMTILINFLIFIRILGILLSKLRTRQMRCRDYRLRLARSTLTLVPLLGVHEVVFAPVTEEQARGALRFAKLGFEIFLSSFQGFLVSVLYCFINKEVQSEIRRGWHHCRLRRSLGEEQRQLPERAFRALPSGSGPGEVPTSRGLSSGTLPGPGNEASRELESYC
Method: as §1

rhesus monkeys = test: Fasted plasma glucagon, glucose and amino acids in rhesus monkeys dosed 14 days; type: in vivo, rhesus monkey
Method: In a follow-up experiment, adult rhesus monkeys were dosed once daily for 14 days with 30 mg/kg GRA1 or vehicle (0.5% methylcellulose plus 0.02% sodium dodecyl sulfate in 2 mL/kg water) delivered by oral gavage. Blood samples were collected on days 0, 1, 7, and 14 after the animals had fasted overnight. Plasma concentrations of glucose, glucagon, and amino acids were assayed by the Hormone Assay & Analytical Services Core at Vanderbilt University (Nashville, TN).

GLP-1R (GLP-1 receptor) = target: T3, GLP-1R (GLP-1 receptor) (Homo sapiens, UniProt P43220); test: Inhibition of GLP-1-stimulated cAMP production in CHO cells expressing GLP-1R; type: cell-based; details: human GLP-1R
T3 construct: expressed in transfected cells
T3 sequence (P43220 24-463): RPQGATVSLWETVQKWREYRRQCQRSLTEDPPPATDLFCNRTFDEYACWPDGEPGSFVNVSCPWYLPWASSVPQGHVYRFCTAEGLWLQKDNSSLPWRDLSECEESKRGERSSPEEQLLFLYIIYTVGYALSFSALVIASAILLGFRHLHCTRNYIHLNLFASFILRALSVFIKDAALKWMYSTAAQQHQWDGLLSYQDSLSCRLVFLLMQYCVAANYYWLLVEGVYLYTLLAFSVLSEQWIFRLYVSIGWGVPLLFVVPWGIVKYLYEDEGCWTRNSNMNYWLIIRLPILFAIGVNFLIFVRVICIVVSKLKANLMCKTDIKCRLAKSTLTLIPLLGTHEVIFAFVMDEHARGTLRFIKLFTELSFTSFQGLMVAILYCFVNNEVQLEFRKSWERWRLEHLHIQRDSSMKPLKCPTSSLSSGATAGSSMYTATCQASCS
Source text: Transfected Chinese hamster ovary (CHO) cell lines were acquired and maintained as previously described, [20]. These included separate cell lines stably expressing human GCGR (hGCGR), mouse GCGR, rhesus GGCR, glucose-dependent insulinotropic peptide receptor (GIPR), GLP-1 receptor (GLP-1R), pituitary adenylate cyclase-activating polypeptide receptor type 1 (PAC1R), and vasoactive adenylate cyclase-activating polypeptide receptor type 2 (VPAC2R). Inhibition of glucagon binding to hGCGR was assayed in cell membranes prepared from the line of CHO cells that expressed the hGCGR. Functional antagonism was assayed by measuring the production of cAMP in intact CHO cells stimulated by agonists specific for their cognate receptors (i.e., glucagon for GCGR-expressing cell lines, GIP for the GIPR-expressing line, etc.). Primary human hepatocytes were obtained from In Vitro Technologies (Baltimore, MD) and glucagon-stimulated glycogenolysis was studied in these as previously described.

[2] = rhesus, 30 mg/kg once daily, Day 0
[3] = rhesus, 30 mg/kg once daily, Day 1
[4] = rhesus, 30 mg/kg once daily, Day 7
[5] = rhesus, 30 mg/kg once daily, Day 14

T1 sequence (Q61606 27-485): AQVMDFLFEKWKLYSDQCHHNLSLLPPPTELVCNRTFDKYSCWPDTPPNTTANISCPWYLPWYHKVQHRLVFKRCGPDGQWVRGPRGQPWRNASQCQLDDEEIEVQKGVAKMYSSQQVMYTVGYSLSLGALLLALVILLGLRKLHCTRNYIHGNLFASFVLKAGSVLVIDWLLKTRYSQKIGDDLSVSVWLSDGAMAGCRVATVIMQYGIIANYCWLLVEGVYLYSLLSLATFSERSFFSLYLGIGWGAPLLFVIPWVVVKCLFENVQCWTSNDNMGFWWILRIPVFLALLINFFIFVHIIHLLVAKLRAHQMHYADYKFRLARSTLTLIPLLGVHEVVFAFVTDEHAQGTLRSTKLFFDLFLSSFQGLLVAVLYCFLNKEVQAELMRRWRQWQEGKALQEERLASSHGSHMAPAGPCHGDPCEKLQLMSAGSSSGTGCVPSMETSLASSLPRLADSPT

For COc1ccc2cc(-c3cc(-c4cc(C(F)(F)F)ccc4F)nn3[C@@H](C)c3ccc(C(=O)NCCC(=O)O)cc3)ccc2c1 [GRA1, N-[4-((1S)-1-{3-(2-fluoro-5-trifluoromethylphenyl)-5-[6-methoxynaphth-2-yl]-1H-pyrazol-1-yl}ethyl)benzoyl]-β-alanine], the IC50 (mouse GCGR) was 0.178 µM, the IC50 [1] was 0.933 µM and the Hypoglycemia (rhesus monkeys; normoglycemic rhesus, 30 mg/kg once daily, 14 days) was “not rendered hypoglycemic”. For the same molecule, the Plasma insulin (rhesus monkeys; rhesus, 30 mg/kg once daily (data not shown)) was “unaffected”, the “Alanine, fasted plasma” value (rhesus monkeys; [2]) was 200 ± 21 µM and the “Arginine, fasted plasma” value (rhesus monkeys; [2]) was 124 ± 15 µM. The “Asparagine, fasted plasma” value (rhesus monkeys; [2]) was 61.2 ± 17.8 µM, the “Aspartic acid, fasted plasma” value (rhesus monkeys; [2]) was 5.3 ± 1.3 µM and the “Glucagon, fasted plasma” value (rhesus monkeys; [2]) was 381 ± 74 pg/mL. For the same molecule, the “Glucose, fasted plasma” value (rhesus monkeys; [2]) was 85.3 ± 9.4 mg/dL, the “Glutamic acid, fasted plasma” value (rhesus monkeys; [2]) was 48.1 ± 3.6 µM and the “Glutamine, fasted plasma” value (rhesus monkeys; [2]) was 597 ± 66 µM. For the same molecule, the “Glycine, fasted plasma” value (rhesus monkeys; [2]) was 300 ± 32 µM, the “Histidine, fasted plasma” value (rhesus monkeys; [2]) was 121 ± 11 µM and the “Hydroxyproline, fasted plasma” value (rhesus monkeys; [2]) was 12.9 ± 2.3 µM. For the same molecule, the “Isoleucine, fasted plasma” value (rhesus monkeys; [2]) was 98.2 ± 8.3 µM, the “Leucine, fasted plasma” value (rhesus monkeys; [2]) was 147 ± 9 µM and the “Lysine, fasted plasma” value (rhesus monkeys; [2]) was 191 ± 25 µM. For the same molecule, the “Methionine, fasted plasma” value (rhesus monkeys; [2]) was 22.9 ± 2.7 µM, the “Phenylalanine, fasted plasma” value (rhesus monkeys; [2]) was 47.8 ± 2.4 µM and the “Proline, fasted plasma” value (rhesus monkeys; [2]) was 118 ± 13 µM. For the same molecule, the “Serine, fasted plasma” value (rhesus monkeys; [2]) was 123 ± 8 µM, the “Threonine, fasted plasma” value (rhesus monkeys; [2]) was 95.2 ± 5.9 µM and the “Tyrosine, fasted plasma” value (rhesus monkeys; [2]) was 77.2 ± 6.8 µM. For the same molecule, the “Valine, fasted plasma” value (rhesus monkeys; [2]) was 256 ± 21 µM, the “Alanine, fasted plasma” value (rhesus monkeys; [3]) was 500 ± 79 µM and the “Arginine, fasted plasma” value (rhesus monkeys; [3]) was 237 ± 33 µM. For the same molecule, the “Asparagine, fasted plasma” value (rhesus monkeys; [3]) was 42.5 ± 8.3 µM, the “Aspartic acid, fasted plasma” value (rhesus monkeys; [3]) was 5.6 ± 0.7 µM and the “Glucagon, fasted plasma” value (rhesus monkeys; [3]) was 921 ± 16 pg/mL. For the same molecule, the “Glucose, fasted plasma” value (rhesus monkeys; [3]) was 63.7 ± 2.7 mg/dL, the “Glutamic acid, fasted plasma” value (rhesus monkeys; [3]) was 71.9 ± 5.7 µM and the “Glutamine, fasted plasma” value (rhesus monkeys; [3]) was 986 ± 150 µM. The “Glycine, fasted plasma” value (rhesus monkeys; [3]) was 533 ± 70 µM, the “Histidine, fasted plasma” value (rhesus monkeys; [3]) was 153 ± 14 µM and the “Hydroxyproline, fasted plasma” value (rhesus monkeys; [3]) was 15.4 ± 2.3 µM. The “Isoleucine, fasted plasma” value (rhesus monkeys; [3]) was 72.4 ± 7.9 µM, the “Leucine, fasted plasma” value (rhesus monkeys; [3]) was 164 ± 24 µM and the “Lysine, fasted plasma” value (rhesus monkeys; [3]) was 390 ± 56 µM. The “Methionine, fasted plasma” value (rhesus monkeys; [3]) was 50.2 ± 10.0 µM, the “Phenylalanine, fasted plasma” value (rhesus monkeys; [3]) was 52.6 ± 7.0 µM and the “Proline, fasted plasma” value (rhesus monkeys; [3]) was 326 ± 54 µM. For the same molecule, the “Serine, fasted plasma” value (rhesus monkeys; [3]) was 228 ± 24 µM, the “Threonine, fasted plasma” value (rhesus monkeys; [3]) was 179.1 ± 25.1 µM and the “Tyrosine, fasted plasma” value (rhesus monkeys; [3]) was 161.4 ± 26.8 µM. For the same molecule, the “Valine, fasted plasma” value (rhesus monkeys; [3]) was 252 ± 33 µM, the “Alanine, fasted plasma” value (rhesus monkeys; [4]) was 456 ± 68 µM and the “Arginine, fasted plasma” value (rhesus monkeys; [4]) was 341 ± 76 µM. For the same molecule, the “Asparagine, fasted plasma” value (rhesus monkeys; [4]) was 54.2 ± 10.8 µM, the “Aspartic acid, fasted plasma” value (rhesus monkeys; [4]) was 6.7 ± 1.2 µM and the “Glucagon, fasted plasma” value (rhesus monkeys; [4]) was 874 ± 101 pg/mL. For the same molecule, the “Glucose, fasted plasma” value (rhesus monkeys; [4]) was 69.2 ± 4.9 mg/dL, the “Glutamic acid, fasted plasma” value (rhesus monkeys; [4]) was 98.9 ± 15.2 µM and the “Glutamine, fasted plasma” value (rhesus monkeys; [4]) was 1186 ± 164 µM. The “Glycine, fasted plasma” value (rhesus monkeys; [4]) was 558 ± 74 µM, the “Histidine, fasted plasma” value (rhesus monkeys; [4]) was 170 ± 15 µM and the “Hydroxyproline, fasted plasma” value (rhesus monkeys; [4]) was 23.3 ± 5.3 µM. The “Isoleucine, fasted plasma” value (rhesus monkeys; [4]) was 88.6 ± 8.2 µM, the “Leucine, fasted plasma” value (rhesus monkeys; [4]) was 215 ± 44 µM and the “Lysine, fasted plasma” value (rhesus monkeys; [4]) was 340 ± 71 µM. The “Methionine, fasted plasma” value (rhesus monkeys; [4]) was 36.1 ± 5.6 µM, the “Phenylalanine, fasted plasma” value (rhesus monkeys; [4]) was 49.7 ± 3.3 µM and the “Proline, fasted plasma” value (rhesus monkeys; [4]) was 490 ± 95 µM. For the same molecule, the “Serine, fasted plasma” value (rhesus monkeys; [4]) was 256 ± 41 µM, the “Threonine, fasted plasma” value (rhesus monkeys; [4]) was 160.9 ± 21.3 µM and the “Tyrosine, fasted plasma” value (rhesus monkeys; [4]) was 110.6 ± 7.9 µM. For the same molecule, the “Valine, fasted plasma” value (rhesus monkeys; [4]) was 260 ± 17 µM, the “Alanine, fasted plasma” value (rhesus monkeys; [5]) was 361 ± 51 µM and the “Arginine, fasted plasma” value (rhesus monkeys; [5]) was 282 ± 54 µM. The “Asparagine, fasted plasma” value (rhesus monkeys; [5]) was 33.8 ± 4.8 µM, the “Aspartic acid, fasted plasma” value (rhesus monkeys; [5]) was 5.9 ± 0.8 µM and the “Glucagon, fasted plasma” value (rhesus monkeys; [5]) was 984 ± 186 pg/mL. The “Glucose, fasted plasma” value (rhesus monkeys; [5]) was 69.2 ± 3.8 mg/dL, the “Glutamic acid, fasted plasma” value (rhesus monkeys; [5]) was 91.9 ± 10.0 µM and the “Glutamine, fasted plasma” value (rhesus monkeys; [5]) was 1151 ± 191 µM. The “Glycine, fasted plasma” value (rhesus monkeys; [5]) was 531 ± 76 µM, the “Histidine, fasted plasma” value (rhesus monkeys; [5]) was 187 ± 21 µM and the “Hydroxyproline, fasted plasma” value (rhesus monkeys; [5]) was 15.3 ± 2.3 µM. For the same molecule, the “Isoleucine, fasted plasma” value (rhesus monkeys; [5]) was 89.6 ± 7.8 µM, the “Leucine, fasted plasma” value (rhesus monkeys; [5]) was 218 ± 36 µM and the “Lysine, fasted plasma” value (rhesus monkeys; [5]) was 375 ± 70 µM. For the same molecule, the “Methionine, fasted plasma” value (rhesus monkeys; [5]) was 34.7 ± 6.3 µM, the “Phenylalanine, fasted plasma” value (rhesus monkeys; [5]) was 51.5 ± 1.8 µM and the “Proline, fasted plasma” value (rhesus monkeys; [5]) was 415 ± 84 µM. For the same molecule, the “Serine, fasted plasma” value (rhesus monkeys; [5]) was 217 ± 28 µM, the “Threonine, fasted plasma” value (rhesus monkeys; [5]) was 155.3 ± 23.3 µM and the “Tyrosine, fasted plasma” value (rhesus monkeys; [5]) was 105.8 ± 9.9 µM. For the same molecule, the “Valine, fasted plasma” value (rhesus monkeys; [5]) was 276 ± 20 µM, the “Increase of plasma glucagon relative to vehicle-treated controls” value (rhesus monkeys; rhesus, 30 mg/kg once daily, both Day 1 and Day 7) was “approximately 3 fold” and the IC50 (GLP-1R (GLP-1 receptor)) was 7.9 µM.
